From EP0327365B1, “Improvements in or relating to modified haptens useful as imaging and therapeutic agents” (HYBRITECH INCORPORATED, priority 1988, dated 1989) come the findings set out here.

Molecules are shown by their SMILES.

Series [1] has as its system monoclonal antibody CHA255. Description: Determination of hapten-antibody dissociation rates. The series is classed as binding, BALB/c mice. The conditions noted are these: 22°C; indium complex of hapten from CHA255 after 100 fold excess of indium-115 loaded hapten. The procedure: Hapten-antibody dissociation rates were determined using monoclonal antibody CHA255, prepared as described in Example 2A, by measuring the quantity of ¹¹¹In³⁺ chelate released from the antibody hapten complex as a function of time after addition of a 100 fold excess (over antibody binding sites) of indium-115 loaded hapten. Thus, for each hapten, a 700 »l solution was prepared containing: antibody at a concentration of 160 nM; indium loaded hapten, trace labeled with ¹¹¹In (total concentration = 160 nM); normal human serum albumin at a total concentration of 1.5 mg/mL; and isotonic phosphate buffered saline, (10 mM PO₄²⁻, 150 mM NaCl, pH 7.2). Indium-115 loaded hapten was added to a final Concentration of […]. Reactions were stirred by placing the sample containers ir a rack mounted on a vortexer head.
At various times after addition of the excess hapten, […] portions of the reaction solutions were transferred to Centrifree tubes (Amicon Corperation, Danvers, Massachusetts) and centrifuged at 1500xg for eight to ten minutes. The reaction time was taken to be the time between addition of the excess hapten and the time the centrifuge reached the desired velocity. Six timepoints, each in duplicate, were obtained over a range of about two reaction half-lives for each rate constant determination. A 200 »l portion from each centrifuged and uncentrifuged solution was then counted for ¹¹¹In. The relative concentration of free hapten was taken to be the ratio of counts in the centrifuged solution to the uncentrifuged solution at each timepoint. Times were recorded to the nearest tenth of a minute.
Room temperature rate constants were measured without the aid of a constant temperature bath. The ambient temperature remained at 22°±1 C.
Rate constants and standard deviations were obtained from a plot of the logarithm of relative complex concentration vs. time. Data were analyzed using the linear regression module of the RS/1 Program (BBN Software Products Corporation, Cambridge, Massachusetts).
Control samples were included in each experiment to determine: A) that the initial condition of 100% of labeled hapten bound to antibody was met, and B) that in the absence of antibody, 100% of counts were able to penetrate the Centrifree membrane. […]

The next series concerns T-380 tumors. Description: Hapten biodistribution, premix protocol with bifunctional antibody ECH037.2. More on the design: TOTAL RECOV: unit not given here. The series is classed as in vivo, nude mice. Particulars: for % DOSE PER GRAM, KIDNEY / % DOSE PER GRAM, LIVER / % DOSE PER GRAM, TUMOR / FECES / TOTAL RECOV / URINE / % DOSE PER GRAM, BLOOD / TUMOR/BLOOD: premix with 20 µg ECH037.2; for % DOSE PER GRAM, BLOOD: 111In-labeled hapten i.v.; for TUMOR/BLOOD: ratio; for Percent Injected Dose in Feces: premix protocol (Table VI). On the procedure: Two protocols were used for examining the biodistribution of the derivatized haptens in the presence of the bifunctional antibody ECH037.2. In a premix protocol, ECH037.2 and the derivatized hapten were combined prior to injection in the animals. In the prelocalization protocol, ECH037.2 was injected into the animals, and the antibody was allowed to prelocalize for 24 hours prior to injection of the radiolabeled hapten.
Biodistribution studies were performed in nude mice carrying subcutaneous implants of the human colon carcinoma cell line T-380 which expresses the carcinoembryonic antigen (CEA) recognized by ECH037.2. Briefly, Balb/C Nu/Nu mice were injected subcutaneously with a minced preparation of T-380 tumor implants and maintained for approximately two weeks, or until the tumor implant had grown to a size of approximately 0.5 grams as described by Hagan, P.L., et al. J. Nuc. Med., 26 1418-1423 (1985). Mice were kept in a sterile environment to prevent complications due to bacterial or viral infections. Biodistributions were performed as described by Halpern, S., et al., Cancer Res. 43, 5347-5355 (1983). Briefly, the radiolabeled haptens were injected intravenously in […], and the pharmacokinetics were evaluated at several time points post-injection. At these times, mice were sacrificed and weighed. Organs were removed, their weight recorded, and each organ was then washed in sterile PBS, pH 7.0, and fixed in formalin solution. Samples of blood, urine and feces also were collected and their weight similarly recorded. The organs, or a portion thereof, were transferred to clean tubes and their radioactive content was determined in a well-type gamma-counter.
Relative radioactive content of each organ was expressed as a percentage of injected dose per organ.
To indium-label the haptens of the invention 10 »l of 0.1 mM ligand was combined with X »l of ¹¹¹InCl₃ (in 50 mM HCl) and (x+10) »l of 0.26 M ammonium citrate, pH 6.0. X is calculated by the following equation: X = (200 »Ci)/(A »Ci/»l) [formula] where A is the specific activity of the ¹¹¹In.
The labeling was done in an acid-washed microfuge tube. After combining all of the components above, the solution was vortexed and allowed to stand at room temperature for 15 minutes.
Incorporation of the ¹¹¹In into the chelating agent was determined by TLC on silica in a methanol/aqueous ammonium acetate solvent system as described by Meares, et al. (Anal. Biochem., 142, 68-75 (1984)). Greater than 95% incorporation of the radioactivity into the chelate was required for the sample to be submitted for a biodistribution assay.
Prior to injection the ¹¹¹In-labeled hapten was diluted into freshly prepared isotonic sodium bicarbonate (1.39% w/v) containing 1 mg/ml normal human serum albumin (Buminate, 25% solution, Travenol Laboratories, Glendale, California) to which the bifunctional antibody had been added. The final composition of the solution was 0.2 mg/ml ECH037.2, 0.5 »M chelate, 0.1 »Ci/»l ¹¹¹In, all in a volume of 2.0 ml. For the biodistribution studies, 100 »l of the solution was injected into the tail vein of each animal.

Turning to `CC(=O)NC(CCCCNC(=S)Nc1ccc(CC(CN(CC(=O)O)CC(=O)O)N(CC(=O)O)CC(=O)O)cc1)C(N)=O` (stereo not shown) [BALTUBE], the “t1/2, Dissociation Half-Lives” value in series [1] came out at 1.52 h. Besides, in the series with T-380 tumors (24 hours), the “% DOSE PER GRAM, KIDNEY” value is 3.6 % DOSE PER GRAM; the “% DOSE PER GRAM, LIVER” value was 4.0 % DOSE PER GRAM; the “% DOSE PER GRAM, TUMOR” value was determined as 13.0 % DOSE PER GRAM; the FECES is on record as 6.8% of total injected dose. Also, in the series with T-380 tumors (24 hours), the “TOTAL RECOV” value is given as 52.0; the URINE is 16.3% of total injected dose; the “% DOSE PER GRAM, BLOOD” value turned out to be 11.0 % DOSE PER GRAM; the TUMOR/BLOOD is recorded as 1.18. In addition, the “Percent Injected Dose in Feces” value with T-380 tumors (24 hrs.) is given as 8.5 Percent Injected Dose. Besides, in the series with T-380 tumors (48 hours), the “% DOSE PER GRAM, KIDNEY” value is 1.9 % DOSE PER GRAM; the “% DOSE PER GRAM, LIVER” value was determined as 2.2 % DOSE PER GRAM; the “% DOSE PER GRAM, TUMOR” value came out at 12.9 % DOSE PER GRAM; the FECES is 13.8% of total injected dose. In addition, in the series with T-380 tumors (48 hours), the “TOTAL RECOV” value turned out to be 57.8; the URINE is on record as 26.5% of total injected dose; the “% DOSE PER GRAM, BLOOD” value amounted to 5.2 % DOSE PER GRAM; the TUMOR/BLOOD turned out to be 2.48. Further, in the series with T-380 tumors (48 hrs.), the “Percent Injected Dose in Feces” value was determined as 13.8 Percent Injected Dose.

With `O=C(O)CCCNC(=S)Nc1ccc(CC(CN(CC(=O)O)CC(=O)O)N(CC(=O)O)CC(=O)O)cc1` (stereo not shown) [BATUBE], the “t1/2, Dissociation Half-Lives” value in series [1] is 1.24 h. Besides, in the series with T-380 tumors (24 hours), the “% DOSE PER GRAM, KIDNEY” value was 2.5 % DOSE PER GRAM; the “% DOSE PER GRAM, LIVER” value is given as 3.3 % DOSE PER GRAM; the “% DOSE PER GRAM, TUMOR” value is 11.5 % DOSE PER GRAM; the FECES is recorded as 6.9% of total injected dose. In the series with T-380 tumors (24 hours), the “TOTAL RECOV” value was found to be 50.8; the URINE is listed as 20.0% of total injected dose; the “% DOSE PER GRAM, BLOOD” value was 11.8 % DOSE PER GRAM; the TUMOR/BLOOD came out at 0.97. In the series with T-380 tumors (24 hrs.), the “Percent Injected Dose in Feces” value came out at 6.9 Percent Injected Dose. In the series with T-380 tumors (48 hours), the “% DOSE PER GRAM, KIDNEY” value is on record as 1.5 % DOSE PER GRAM; the “% DOSE PER GRAM, LIVER” value came out at 2.0 % DOSE PER GRAM; the “% DOSE PER GRAM, TUMOR” value came out at 12.1 % DOSE PER GRAM; the FECES is reported as 21.1% of total injected dose. In the series on T-380 tumors (48 hours), the “TOTAL RECOV” value is on record as 68.3; the URINE is on record as 30.4% of total injected dose; the “% DOSE PER GRAM, BLOOD” value was determined as 7.9 % DOSE PER GRAM; the TUMOR/BLOOD is recorded as 1.53. Besides, the “Percent Injected Dose in Feces” value with T-380 tumors (48 hrs.) stood at 21.1 Percent Injected Dose.

For the molecule `O=C(O)CN(CC(=O)O)CC(Cc1ccc(NC(=S)NCc2ccccc2)cc1)N(CC(=O)O)CC(=O)O` (stereo not shown) [BETUBE], the “t1/2, Dissociation Half-Lives” value in series [1] was found to be 1.57 h. In the series with T-380 tumors (24 hours), the “% DOSE PER GRAM, KIDNEY” value is 2.5 % DOSE PER GRAM; the “% DOSE PER GRAM, LIVER” value was 2.7 % DOSE PER GRAM; the “% DOSE PER GRAM, TUMOR” value is listed as 8.0 % DOSE PER GRAM; the FECES is on record as 17.4% of total injected dose. For the same molecule, in the series on T-380 tumors (24 hours), the “TOTAL RECOV” value is listed as 44.6; the URINE is 8.4% of total injected dose; the “% DOSE PER GRAM, BLOOD” value was found to be 9.0 % DOSE PER GRAM; the TUMOR/BLOOD is 0.89. Besides, the “Percent Injected Dose in Feces” value with T-380 tumors (24 hrs.) is reported as 17.4 Percent Injected Dose. In the series with T-380 tumors (48 hours), the “% DOSE PER GRAM, KIDNEY” value amounted to 1.5 % DOSE PER GRAM; the “% DOSE PER GRAM, LIVER” value is given as 1.9 % DOSE PER GRAM; the “% DOSE PER GRAM, TUMOR” value is given as 7.5 % DOSE PER GRAM; the FECES was 29.0% of total injected dose. In addition, in the series on T-380 tumors (48 hours), the “TOTAL RECOV” value was 54.2; the URINE is listed as 12.0% of total injected dose; the “% DOSE PER GRAM, BLOOD” value came out at 5.5 % DOSE PER GRAM; the TUMOR/BLOOD was 1.36. Besides, the “Percent Injected Dose in Feces” value with T-380 tumors (48 hrs.) is on record as 29.0 Percent Injected Dose.

`CCCCNC(=S)Nc1ccc(CC(CN(CC(=O)O)CC(=O)O)N(CC(=O)O)CC(=O)O)cc1` (stereo not shown) [BUTUBE]: the “t1/2, Dissociation Half-Lives” value in series [1] stood at 1.51 h. Besides, in the series with T-380 tumors (24 hours), the “% DOSE PER GRAM, KIDNEY” value was 1.7 % DOSE PER GRAM; the “% DOSE PER GRAM, LIVER” value amounted to 3.4 % DOSE PER GRAM; the “% DOSE PER GRAM, TUMOR” value was 5.3 % DOSE PER GRAM; the FECES is recorded as 16.8% of total injected dose. In addition, in the series on T-380 tumors (24 hours), the “TOTAL RECOV” value came out at 63.8; the URINE was 22.0% of total injected dose; the “% DOSE PER GRAM, BLOOD” value came to 9.0 % DOSE PER GRAM; the TUMOR/BLOOD came to 0.59. The “amount of hapten in the tumor” value in the series with T-380 tumors (24 hrs., premix protocol) was 5.3 percent injected dose/gram. Moreover, in the series with T-380 tumors (24 hrs.), the “Percent Injected Dose in Feces” value came out at 16.8 Percent Injected Dose. For the same molecule, in the series on T-380 tumors (48 hours), the “% DOSE PER GRAM, KIDNEY” value is on record as 1.2 % DOSE PER GRAM; the “% DOSE PER GRAM, LIVER” value is on record as 3.8 % DOSE PER GRAM; the “% DOSE PER GRAM, TUMOR” value is 5.7 % DOSE PER GRAM; the FECES is recorded as 26.5% of total injected dose. Also, in the series with T-380 tumors (48 hours), the “TOTAL RECOV” value came out at 69.3; the URINE is 27.0% of total injected dose; the “% DOSE PER GRAM, BLOOD” value came to 5.8 % DOSE PER GRAM; the TUMOR/BLOOD is on record as 0.98. In the series on T-380 tumors (48 hrs. post injection, premix protocol), the “injected material excreted in the feces” value is 26.5% of the injected material. Also, the “amount of hapten in the tumor” value with T-380 tumors (48 hrs., premix protocol) is 5.7 percent injected dose/gram. In the series on T-380 tumors (48 hrs.), the “Percent Injected Dose in Feces” value is on record as 26.5 Percent Injected Dose.
